Here are results for 21 molecules from ChEMBL document CHEMBL1133867, “Design, synthesis, and SAR of heterocycle-containing antagonists of the human CCR5 receptor for the treatment of HIV-1 infection” (Bioorg Med Chem Lett, 2001).

As a reminder, the IC50 is the concentration that gives 50% inhibition. In general, IC90 refers to the concentration at which the effect reaches the 90% level. A lower IC90 goes with an effect from little substance. By clearance is commonly meant the volume of plasma or blood freed of the substance per unit of time. Higher therefore signals a high capacity for elimination. By bioavailability is commonly meant dose-corrected exposure relative to a reference, in per cent. A low value points to little systemic uptake.

Series [1] deals with T1, C-C chemokine receptor type 5 (Homo sapiens, UniProt P51681). As to the kind of experiment: Binding affinity against C-C chemokine receptor type 5 stably expressed in Chinese hamster ovary (CHO) cells using [125I]-MIP-1 alpha as the radioligand. The series is classed as cell-based.
For series [2], the target named is C-C chemokine receptor type 2 (Homo sapiens, UniProt P41597). Briefly: Compound was evaluated for its inhibitory activity against C-C chemokine receptor type 2.
Series [3] concerns the target T2, C-C chemokine receptor type 4 (Homo sapiens, UniProt P51679).
T2 sequence (P51679 whole entry): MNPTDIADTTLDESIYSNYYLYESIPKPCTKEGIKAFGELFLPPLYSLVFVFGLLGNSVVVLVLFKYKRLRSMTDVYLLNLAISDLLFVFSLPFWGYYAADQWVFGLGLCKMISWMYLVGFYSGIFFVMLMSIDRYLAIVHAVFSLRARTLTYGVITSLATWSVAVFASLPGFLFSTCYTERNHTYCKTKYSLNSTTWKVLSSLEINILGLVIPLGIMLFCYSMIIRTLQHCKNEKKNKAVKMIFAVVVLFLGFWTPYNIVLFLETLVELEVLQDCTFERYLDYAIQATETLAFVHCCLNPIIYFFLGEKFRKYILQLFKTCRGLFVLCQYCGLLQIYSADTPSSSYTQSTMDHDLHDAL
As to the kind of experiment: Compound was evaluated for its inhibitory activity against C-C chemokine receptor type 4.

In series [4] the target is C-X-C chemokine receptor type 4 (Homo sapiens, UniProt P61073). Briefly: Compound was evaluated for its inhibitory activity against C-X-C chemokine receptor type 4.
The target in series [5] is T3, C-C chemokine receptor type 1 (Homo sapiens, UniProt P32246).
T3 sequence (P32246 whole entry): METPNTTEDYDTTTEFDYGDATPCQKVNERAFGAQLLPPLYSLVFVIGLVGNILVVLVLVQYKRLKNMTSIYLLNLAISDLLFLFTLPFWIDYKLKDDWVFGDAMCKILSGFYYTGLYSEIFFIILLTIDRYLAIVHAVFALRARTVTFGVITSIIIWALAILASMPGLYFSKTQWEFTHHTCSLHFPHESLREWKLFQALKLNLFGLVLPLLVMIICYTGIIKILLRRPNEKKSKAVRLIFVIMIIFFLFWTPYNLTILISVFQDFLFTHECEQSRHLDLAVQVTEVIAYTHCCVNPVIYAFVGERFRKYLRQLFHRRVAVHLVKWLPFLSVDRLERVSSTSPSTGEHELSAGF
As to the kind of experiment: Compound was evaluated for inhibitory activity against C-C chemokine receptor type 1.

In another series the test system is HeLa. As to the kind of experiment: Antiviral activity against HeLa Magi cells expressing both CXCR4 and CCR5 in a 48 hr single cycle HIV (BAL) infection assay. The class given is functional. Conditions: Homo sapiens.
In series [6] the target is T4, C-C chemokine receptor type 3 (Homo sapiens, UniProt P51677).
T4 sequence (P51677 whole entry): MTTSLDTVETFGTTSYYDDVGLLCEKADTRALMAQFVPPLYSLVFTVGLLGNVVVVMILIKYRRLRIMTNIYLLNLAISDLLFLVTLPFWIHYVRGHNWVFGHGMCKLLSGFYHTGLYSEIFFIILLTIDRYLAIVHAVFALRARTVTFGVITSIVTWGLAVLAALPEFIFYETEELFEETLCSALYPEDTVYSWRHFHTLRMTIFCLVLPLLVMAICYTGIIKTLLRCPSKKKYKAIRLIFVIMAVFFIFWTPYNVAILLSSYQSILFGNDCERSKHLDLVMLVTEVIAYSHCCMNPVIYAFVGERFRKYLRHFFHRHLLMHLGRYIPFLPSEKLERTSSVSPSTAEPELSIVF
Briefly: Compound was evaluated for its inhibitory activity against C-C chemokine receptor type 3.

The nature of series [7]: Clearance in rat. The series is classed as ADME, organism-based. Conditions: in vivo.
A short description of series [8]: Oral bioavailability in rat. The series is classed as ADME, organism-based. Conditions: in vivo.
Series [9] has as its target T1, C-C chemokine receptor type 5. Briefly: Binding affinity against human CCR5 receptor stably expressed in Chinese hamster ovary (CHO) cells using [125I]-MIP-1 alpha as the radioligand. The class given is cell-based.

Chain of C-X-C chemokine receptor type 4 (P61073 whole entry): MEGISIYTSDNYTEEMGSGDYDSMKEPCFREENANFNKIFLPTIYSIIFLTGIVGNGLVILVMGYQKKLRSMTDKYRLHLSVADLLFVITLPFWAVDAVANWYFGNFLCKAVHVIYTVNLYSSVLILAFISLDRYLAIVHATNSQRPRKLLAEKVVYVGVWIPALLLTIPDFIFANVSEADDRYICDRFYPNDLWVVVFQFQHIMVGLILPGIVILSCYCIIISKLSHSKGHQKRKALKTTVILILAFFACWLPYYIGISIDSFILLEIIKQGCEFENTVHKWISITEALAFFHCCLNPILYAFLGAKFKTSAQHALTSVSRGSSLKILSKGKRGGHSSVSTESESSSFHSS
T1 sequence (P51681 whole entry): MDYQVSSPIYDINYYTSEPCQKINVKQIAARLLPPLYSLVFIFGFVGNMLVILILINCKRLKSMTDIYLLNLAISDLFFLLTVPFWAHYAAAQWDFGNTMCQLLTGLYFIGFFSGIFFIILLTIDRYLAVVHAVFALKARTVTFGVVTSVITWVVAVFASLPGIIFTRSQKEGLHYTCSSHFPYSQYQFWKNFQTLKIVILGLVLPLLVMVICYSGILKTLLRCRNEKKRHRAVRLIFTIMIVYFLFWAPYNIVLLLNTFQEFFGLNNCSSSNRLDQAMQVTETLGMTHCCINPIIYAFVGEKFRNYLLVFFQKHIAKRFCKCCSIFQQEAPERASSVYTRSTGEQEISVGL
Chain of C-C chemokine receptor type 2 (P41597 whole entry): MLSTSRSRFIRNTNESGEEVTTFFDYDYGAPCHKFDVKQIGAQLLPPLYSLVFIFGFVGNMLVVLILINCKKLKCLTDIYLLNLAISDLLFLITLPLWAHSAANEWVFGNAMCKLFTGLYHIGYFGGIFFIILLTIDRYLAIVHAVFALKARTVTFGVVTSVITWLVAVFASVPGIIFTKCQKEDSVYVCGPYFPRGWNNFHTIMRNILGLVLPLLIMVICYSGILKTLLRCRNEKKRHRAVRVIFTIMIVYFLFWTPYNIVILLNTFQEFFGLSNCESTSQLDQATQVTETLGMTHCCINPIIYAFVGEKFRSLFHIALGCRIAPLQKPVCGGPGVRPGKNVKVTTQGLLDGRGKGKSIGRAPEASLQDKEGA

With `C=CCN(C(=O)OCc1ccc([N+](=O)[O-])cc1)C1CCN(CCC(Cn2nnc(-c3ccccc3)n2)c2ccccc2)CC1` (stereo not drawn), the IC50 in [1] was 111 nM.
As to `C=CCN(C(=O)OCc1ccccc1)C1CCN(CCC(Cn2cnc3ccccc32)c2ccccc2)CC1` (stereo not drawn), the IC50 in series [2] is > 1000 nM; in [1], 25 nM; in series [3], > 1000 nM; in series [4] it was > 1000 nM; in series [5], > 1000 nM; in series [6], > 1000 nM. In the series on HeLa, the IC90 was > 3000 nM.
As to `C=CCN(C(=O)OCc1ccccc1)C1CCN(CCC(C)(CN2C(=O)N[C@H](Cc3c[nH]c4ccccc34)C2=O)c2ccccc2)CC1` (stereo partly drawn), in [7], the clearance was determined as 84 mL/min/kg. The same molecule displayed a bioavailability in [8] of 1%.
`C=CCN(C(=O)OCc1ccc([N+](=O)[O-])cc1)C1CCN(CCC(Cn2nnnc2-c2ccccc2)c2ccccc2)CC1` (stereo not drawn) displayed an IC50 in series [1] of 335 nM.
Take `C=CCN(C(=O)OCc1ccc([N+](=O)[O-])cc1)C1CCN(CCC(C)(Cn2cnc3ccccc32)c2ccccc2)CC1` (stereo not drawn): the IC50 in series [2] is > 1000 nM; in series [1], 10 nM; in [3], > 1000 nM; in series [4], > 1000 nM; in series [5] it was > 1000 nM; in series [6] it was > 1000 nM. Also, the IC90 in the series on HeLa stood at 1000 nM.
Take `C=CCN(C(=O)OCc1ccc([N+](=O)[O-])cc1)C1CCN(CCC(Cn2cnc(Cl)c2Cl)c2ccccc2)CC1` (stereo not drawn): in [1], the concentration for half-maximal inhibition (IC50) was determined as 16 nM.
The same measure, in the same setting: the value for `C=CCN(C(=O)OCc1ccc([N+](=O)[O-])cc1)C1CCN(CCC(Cn2cncn2)c2ccccc2)CC1` (stereo not drawn) was 28 nM.
As to `C=CCN(C(=O)OCc1ccccc1)C1CCN(CCC(C)(Cn2cnc3ccccc32)c2ccccc2)CC1` (stereo not drawn), the IC50 in [2] is > 1000 nM; in series [1], 112 nM; in [3], > 1000 nM; in series [4], > 1000 nM; in series [5] it was > 1000 nM; in [6], > 1000 nM.
In [1], `C=CCN(C(=O)OCc1ccc([N+](=O)[O-])cc1)C1CCN(CCC(Cn2cc3ccccc3n2)c2ccccc2)CC1` (stereo not drawn) displayed an IC50 of 27 nM.
Regarding `C=CCN(C(=O)OCc1ccc([N+](=O)[O-])cc1)C1CCN(CCC(Cn2cnc3ccccc32)c2ccccc2)CC1` (stereo not drawn), the IC50 is > 1000 nM in series [2]; 4 nM in series [1]; > 1000 nM in series [3]; > 1000 nM in series [4]; > 1000 nM in series [5]; > 1000 nM in series [6]. The same molecule showed a clearance in series [7] of 49 mL/min/kg. The molecule also had an IC90 in the series with HeLa of 1000 nM. The bioavailability in [8] was 14%.
`C=CCN(C(=O)OCc1ccc([N+](=O)[O-])cc1)C1CCN(CCC(Cn2cnc(CC#N)c2)c2ccccc2)CC1` (stereo not drawn): the IC50 in series [1] worked out at 15 nM.
As to `C=CCN(C(=O)OCc1ccc([N+](=O)[O-])cc1)C1CCN(CCC(Cn2c(CC)nc3ccccc32)c2ccccc2)CC1` (stereo not drawn), the IC50 was > 1000 nM in series [2]; 48 nM in series [1]; > 1000 nM in series [3]; > 1000 nM in [4]; > 1000 nM in series [5]; > 1000 nM in series [6]. This molecule also returned an IC90 in the series with HeLa of 3000 nM.
In series [1], `C=CCN(C(=O)OCc1ccc([N+](=O)[O-])cc1)C1CCN(CCC(Cn2cnc(-c3ccccc3)c2)c2ccccc2)CC1` (stereo not drawn) yielded an IC50 of 23 nM.
In the case of `C=CCN(C(=O)OCc1ccccc1)C1CCN(CCC(Cn2c(CC)nc3ccccc32)c2ccccc2)CC1` (stereo not drawn), the IC50 in [2] was > 1000 nM; in [1], 246 nM; in [3] it was > 1000 nM; in series [4], > 1000 nM; in [5], > 1000 nM; in series [6], > 1000 nM.
`C=CCN(C(=O)OCc1ccc([N+](=O)[O-])cc1)C1CCN(CCC(Cn2cnc([N+](=O)[O-])c2)c2ccccc2)CC1` (stereo not drawn) displayed an IC50 in series [1] of 15 nM.
Molecule `C=CCN(C(=O)OCc1ccc([N+](=O)[O-])cc1)C1CCN(CCC(Cn2ncc3ccccc32)c2ccccc2)CC1` (stereo not drawn) registered an IC50 in series [1] of 15 nM.
For the molecule `CN(C[C@@H](CCN1CCC2(CC1)C[S+]([O-])c1ccccc12)c1cccc(Cl)c1)S(=O)(=O)c1ccccc1` (stereo partly drawn), the IC50 in series [9] was found to be 35 nM.
On to `C=CCN(C(=O)OCc1ccccc1)C1CCN(CCC(C)(c2ccccc2)C2Nc3ccccc3S(=O)(=O)N2)CC1` (single isomer, unassigned), for which the IC50 in series [1] is 55 nM.
Same read-out and setting: to `C=CCN(C(=O)OCc1ccc([N+](=O)[O-])cc1)C1CCN(CCC(C)(c2ccccc2)C2c3ccccc3C(=O)N2CC)CC1` (single isomer, unassigned; form 1) belongs 18 nM; to `C=CCN(C(=O)OCc1ccc([N+](=O)[O-])cc1)C1CCN(CCC(C)(c2ccccc2)C2c3ccccc3C(=O)N2CC)CC1` (single isomer, unassigned; form 2), 10 nM.
On the same count and under the same terms, to `C=CCN(C(=O)OCc1ccccc1)C1CCN(CCC(C)(c2ccccc2)C2Nc3ccccc3S(=O)(=O)N2)CC1` (stereo in doubt) belongs 18 nM.
